Test results: EP0174571A2, “Derivatives of amino acids, process for their preparation and pharmaceutical compositions” (BOEHRINGER INGELHEIM KG, priority 1984, dated 1986)

What was measured:
[1] = system: narkotisierten Ratte; assay: Blood pressure lowering in the anaesthetised rat after angiotensin I pressor stimulus; format: in vivo; conditions: 0,3 mg/kg i.v.; blood pressure raised beforehand with 0,1 mg/kg Angiotensin I i.v.; long lasting
Method: So erzeugt das N-[N-(3-Phenyl-2-S-mercaptopropanoyl)-S-alanyl]-S-prolin an der narkotisierten Ratte in einer Dosierung von 0,3 mg/kg i.v. eine lang anhaltende Blutdrucksenkung von 67 %, wenn man vorher durch eine i.v.-Gabe von 0,1 mg/kg Angiotensin I den Blutdruck steigert.

[2] = system: Kaninchen; assay: Blood pressure test in the rabbit (carotid artery); format: in vivo; conditions: 1 mg/kg i.v.; blood pressure from the carotid
Method: Am Kaninchen (Blutdruckversuch aus der Carotis) wird nach Gabe von 1 mg/kg der Substanz, i.v., eine Blutdrucksenkung von 37 mm beobachtet.

Question: CC(NC(=O)C(S)Cc1ccccc1)C(=O)N1CCCC1C(=O)O (centres unmarked) [Beispiel 1, N-[N-(3-Phenyl-2-S-mercatopropanoyl)-S-alanyl]-S-prolin] was tested. Which Blutdrucksenkung [1] did it give?
Answer: Its Blutdrucksenkung is 67%.

Question: What about the Blutdrucksenkung [2] of the same compound?
Answer: Its Blutdrucksenkung is 37 mm.
